Read-outs that look alike come from different tables or passages of the source. Where a SMILES comes first, the peptide text is derived from it. Bridges are numbered along the chain shown (N, C = ends). [ ]: non-standard residue; d: D form. The star is where a group is joined. X1 = CC[C@H](C)CCCCC(=O)*; Dab = NCC[C@H](N)C(=O)O
Legend:
[1] = test system: XDR-GN bacterial nosocomial pneumonia; assay: Clinical efficacy (treatment success) of PMB; format: in vivo, human; details: 27 enrolled patients; iv 100 mg loading, 50 mg q12h
Text: The decision to administer PMB was made by the attending physicians. Patients with conditions that could alter the PK of PMB, who had rapidly declining or fluctuating renal function (serum creatinine ± 50% since the start of therapy, who could affect the removal of drugs from the body), who were pregnant (hormone levels, increased blood volume, and other factors affecting drug processes), who had severe burns/head/spinal cord injury (high metabolic status, fluid redistribution, reduced plasma protein levels, and other factors affecting drug processes), who had cystic fibrosis (decreased distribution of PMB in lungs), or who were severely under- or overweight (±40% of ideal body weight, changes of fat volume, and body surface area affecting drug processes) were excluded. The study was approved by the Ethics Committees of Peking Union Medical College Hospital and the Declaration of Helsinki. Written informed consent was obtained from all patients or their legal representatives.
The primary PD response was evaluated by PK/PD indices. […] The secondary PD response was evaluated by clinical parameters. […] The percentage of patients who achieved the PK/PD targets or treatment success was calculated. Variables potentially related to clinical efficacy were assessed. […] The optimal cutoff point for the PK/PD indices was calculated with the Youden index.

[2] = Plasma pharmacokinetics of intravenous PMB in critically ill patients (UPLC-MS/MS; noncompartmental and two-compartment analysis); format: in vivo, human; details: for Cmax: read-out: Css,max; for AUC(0-t): read-out: AUCss,0–24h
Description: The patients received a 100 mg loading dose followed by a maintenance dose of 50 mg every 12 h. PMB was administered by short-term infusions (60 min). Blood samples were collected from each patient in three stages.
Phase of first dose: Blood samples were collected at defined time points to capture PK data.
Phase of steady state: Although a steady state of PMB concentration can be achieved after 48 h of treatment, considering the special condition of critically ill patients, blood samples were collected immediately before the initiation of the seventh dose (trough) and immediately at the end of the seventh dose (peak).
During the last dose phase, blood samples were collected immediately before the initiation of the last dose, immediately at the end of the last dose, and randomly (at least eight blood samples for each person) at 1.5, 2, 2.5, 3, 5, 7, 9, 12, 15, 19, 24, 48, and 72 h after completing the infusion.
Blood and BAL samples were centrifuged for 10 min (3000 rpm) and immediately stored at −80 °C until analysis.
PMB concentrations in the samples were quantified by monitoring the total concentrations of polymyxin B1 (PB1), polymyxin B2 (PB2), polymyxin B3 (PB3), and isoleucine polymyxin B1 (I-PB1) via a validated ultraperformance liquid chromatography–tandem mass spectrometry (UPLC-MS/MS) assay. The standard substances, including PB1 (CAS P037), PB2 (CAS P037), PB3 (CAS P040), and I-PB1 (CAS P038), were purchased by TOKU-E Company (>99% pure, Bellingham, WA, USA). ACQUITY UPLC system, Quattro PremierXE triple quadrupole mass spectrometer, electrospray isonizaiton source (ESI), and Masslynx 4.1 data processing software were used in this study (Waters Company, Milford, MA, USA). An Acquity UPLC BEH C18 column (50 mm × 2.1 mm internal diameter, 1.8 μm) purchased from Waters (Milford, MA, USA) was used. The mobile phase comprised a 0.2% formic acid aqueous solution and a 0.2% formic acid acetonitrile solution, and the flow rate was 0.3 mL/min. Mass spectrometric detection was performed in positive electrospray ionization (ESI+) mode with multiple reaction monitoring (MRM). The optimized transitions were set as follows: m/z 602.7→101.0 for PB1 and I-PB1, m/z 595.7→100.9 for PB2 and PB3, and […] for the internal standard norvancomycin. Plasma and BAL supernatant was aliquoted into microcentrifuge tubes and sequentially treated with 20 μL norvancomycin or 200 μL 5% trichloroacetic acid. 1 μL plasma and 2 μL BAL of supernatant were collected separately for the detection of PMB concentrations.
Analysis of independently prepared quality control samples indicated good reproducibility (coefficients of variation ≤ 8.39%) and accuracy (measured concentrations ≤ 10.0% from target concentrations). The standard curve was linear over the range of 0.5 to 10,000 ng/mL, with precision and accuracy of less than 15%. The regression coefficient was 0.9985. The relative standard deviation values for the intra- and inter-day precision at low, middle, and high levels were all less than 6%, and the recovery rate was 83.1–85.4%.
The plasma concentration–time values for PMB were analysed via Phoenix WinNonlin 8.1. The data were explored via noncompartmental and two-compartment PK models. The principles for final model selection were a low Akaike information criterion (AIC), visual evaluation of individual plasma concentration–time profiles, and precision of parameter estimations on the basis of one sample t-test or the correlation coefficient. The following PK parameters were generated via noncompartmental and two-compartment analysis: Cmax, CL, Vd, t1/2, k, and AUC was determined via the linear trapezoidal rule. The PMB Css,avg was calculated from the Cmax and Cmin that were directly obtained from the observed peak and trough concentrations in the stable state. The simulated concentrations were obtained via compartment PK models. Factors that affect PMB PK parameters were also evaluated.

[3] = 27 critically ill patients, iv 100 mg loading, 50 mg q12h, noncompartmental analysis after last dose, mean
[4] = Treatment Failure (n = 5), median [IQR]
[5] = human, plasma, iv, 50 mg, Treatment Success (n = 22), median [IQR]
[6] = human, plasma, iv, 50 mg, Table 2, 27 enrolled patients, mean

CC[C@H](C)CCCCC(=O)N[C@@H](CCN)C(=O)N[C@H](C(=O)N[C@@H](CCN)C(=O)N[C@H]1CCNC(=O)[C@H]([C@@H](C)O)NC(=O)[C@H](CCN)NC(=O)[C@H](CCN)NC(=O)[C@H](CC(C)C)NC(=O)[C@@H](Cc2ccccc2)NC(=O)[C@H](CCN)NC1=O)[C@@H](C)O [PMB, polymyxin B] (X1-[Dab]T[Dab][Dab][Dab][dF]L[Dab][Dab]T; lactam 4-C)
treatment success (response rate) [1]: 81.48%
half-life (t1/2) [2, 3]: 19.56 h
volume of distribution (Vd) [2, 3]: 30.44 L
Css,avg ([2]; Table 2, 27 enrolled patients, mean): 5.1 µg/mL
Css,avg ([2]; Total (n = 27), median [IQR]): 5.2 [3.8, 5.9]
Css,max ([2]; Total (n = 27), median [IQR]): 8.7 [6.6, 10.1]
Css,avg [2, 4]: 6.6 [5.9, 7.7]
Css,max [2, 4]: 11.1 [9.9, 11.4]
Css,avg ([2]; Treatment Success (n = 22), median [IQR]): 5.0 [3.7, 5.5]
Cmax ([2]; human, plasma, iv, 50 mg, Table 2, 27 enrolled patients, iv 100 mg loading, 50 mg q12h, mean): 8300 ng/mL
AUC(0-t) ([2]; human, plasma, iv, 50 mg, Total (n = 27), median [IQR]): 101 µg·h/mL
AUC(0-t) ([2]; human, plasma, iv, 50 mg, Treatment Failure (n = 5), median [IQR]): 64.7 µg·h/mL
AUC(0-t) [2, 5]: 112 µg·h/mL
Cmax [2, 5]: 8700 ng/mL
Vd [2, 6]: 30.4 L
clearance [2, 6]: 26.7 mL/min
half-life [2, 6]: 19.6 h
AUC(0-t) [2, 6]: 110 µg·h/mL

From article PMC12030314, “Biomarker-Driven Pharmacokinetics and Efficacy of Polymyxin B in Critically Ill Patients with XDR-GN Pneumonia” (Pharmaceuticals, 2025)
